Measurements as given in patent US7030265B2, “Retinol derivatives, the method of preparations and the uses thereof” (Chebigen, Inc., priority 2001, dated 2006).

Key:
Assay type in all cases: cell-based
retinoid X receptor β = target: T1, retinoid X receptor β (Homo sapiens, UniProt P28702); assay: RXR activity test, DR1-tk-CAT reporter in HaCAT cells; settings: 1 μM, CAT ELISA, FIG. 2 (B)
T1 construct: expressed in transfected cells; host or cells: HaCAT
T1 sequence (P28702 1-533): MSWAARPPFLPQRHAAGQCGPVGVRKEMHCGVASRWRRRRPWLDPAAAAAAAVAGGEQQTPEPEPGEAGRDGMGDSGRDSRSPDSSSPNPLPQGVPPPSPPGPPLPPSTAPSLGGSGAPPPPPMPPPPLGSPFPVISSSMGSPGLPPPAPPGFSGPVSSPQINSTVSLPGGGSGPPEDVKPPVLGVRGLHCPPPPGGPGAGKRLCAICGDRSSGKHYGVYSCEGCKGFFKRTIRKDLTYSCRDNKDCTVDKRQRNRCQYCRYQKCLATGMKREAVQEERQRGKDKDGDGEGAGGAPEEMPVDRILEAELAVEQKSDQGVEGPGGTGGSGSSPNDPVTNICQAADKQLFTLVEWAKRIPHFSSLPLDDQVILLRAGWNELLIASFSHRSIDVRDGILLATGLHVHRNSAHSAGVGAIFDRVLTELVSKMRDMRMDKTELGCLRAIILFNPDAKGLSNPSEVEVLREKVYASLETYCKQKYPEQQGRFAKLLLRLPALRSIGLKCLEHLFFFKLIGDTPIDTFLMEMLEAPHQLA
Description: (§1) To analyze the effects of retinol-(N-formyl-aspartam) on the activity of retinoic acid receptor, skin cancer (HaCAT) cell lines were utilized to measure the activity of retinoic acid receptor/retinoid X receptor.
(§2) Recombinant DNA, DR5-tk-CAT or DR1-tk-CAT consisting of DR1 or DR5, effectors of retinoic acid receptor/retinoid X receptor, thymine kinase promoter, and CAT(chloramphenicol acetyl transferase) were mixed with the plasmid DNA expressing retinoic acid receptor α, β, ? or retinoid X receptor α, β, ? to cotransfect skin cancer (HaCAT) cell line with lipofectamine (GibcoBRL). The cotransfected cell lines were cultured for 1 day on DMEM/10% FBS media, each retinol derivatives (1 μM) were added and cultured for one more day, 5% CO2, 37° C. The cells were washed with phosphate-buffered saline (PBS), and the proteins were isolated from each cells, and the activity of β-galactosidase and protein contents were measured to determine transfection efficacy, the transcription level of RAR or RXR receptor were measured with CAT ELISA (Roche Molecular Biochemical, Mannheim, Germany).

retinoid X receptor α = target: T2, retinoid X receptor α (Homo sapiens, UniProt P19793); assay: as above; settings: 1 μM, CAT ELISA, FIG. 2 (B)
T2 construct: expressed in transfected cells; host or cells: HaCAT
T2 sequence (P19793 1-462): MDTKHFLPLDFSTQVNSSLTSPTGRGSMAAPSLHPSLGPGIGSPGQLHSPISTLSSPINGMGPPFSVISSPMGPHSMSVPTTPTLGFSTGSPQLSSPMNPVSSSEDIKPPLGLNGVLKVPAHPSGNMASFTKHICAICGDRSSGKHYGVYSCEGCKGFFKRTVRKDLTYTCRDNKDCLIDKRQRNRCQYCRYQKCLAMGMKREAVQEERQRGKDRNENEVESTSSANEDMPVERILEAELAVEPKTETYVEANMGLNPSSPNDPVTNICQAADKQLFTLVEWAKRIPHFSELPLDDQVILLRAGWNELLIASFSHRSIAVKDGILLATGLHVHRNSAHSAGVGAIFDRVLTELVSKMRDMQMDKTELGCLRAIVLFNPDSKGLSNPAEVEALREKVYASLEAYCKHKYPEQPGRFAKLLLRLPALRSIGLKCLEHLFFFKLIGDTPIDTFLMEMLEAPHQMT
Description: as §1, §2

retinoid X receptor γ = target: T3, retinoid X receptor γ (Homo sapiens, UniProt P48443); assay: as above; settings: 1 μM, CAT ELISA, FIG. 2 (B)
T3 construct: expressed in transfected cells; host or cells: HaCAT
T3 sequence (P48443 1-463): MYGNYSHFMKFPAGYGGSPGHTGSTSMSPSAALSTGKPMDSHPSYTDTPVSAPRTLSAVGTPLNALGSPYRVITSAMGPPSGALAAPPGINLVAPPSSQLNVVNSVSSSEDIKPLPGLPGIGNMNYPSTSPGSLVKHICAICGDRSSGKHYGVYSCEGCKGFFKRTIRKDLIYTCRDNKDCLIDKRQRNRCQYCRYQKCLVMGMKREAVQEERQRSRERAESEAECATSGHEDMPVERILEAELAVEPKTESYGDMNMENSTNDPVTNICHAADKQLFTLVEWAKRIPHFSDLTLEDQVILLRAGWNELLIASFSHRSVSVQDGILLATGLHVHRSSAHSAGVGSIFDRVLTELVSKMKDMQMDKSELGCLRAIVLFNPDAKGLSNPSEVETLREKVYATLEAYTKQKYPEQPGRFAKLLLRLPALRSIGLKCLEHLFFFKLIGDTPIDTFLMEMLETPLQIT
Description: as §1, §2

[1] = test system: activation protein-1 (AP-1); assay: Activity inhibition test of AP-1, Coll-CAT reporter in HaCAT cells; settings: c-Jun expression, in the presence of retinoic acid receptor α, CAT ELISA, FIG. 6
Description: Since the activation protein-1 (c-Jun is the constituent of AP-1) is transcription factor inducing expression of collagenase enzyme, which is a major cause of skin wrinkle, the effect of wrinkle prevention was determined by the activity inhibition test of AP-1.
CAT reporter (Coll-CAT) containing collagen promoter including AP-1 transcription factor binding site (TRE) were utilized to cotransfect skin cancer (HaCAT) cell line. The effect of retinol derivatives on the activity of AP-1 was measured by CAT ELISA. In some cases, the vector expressing c-Jun or retinoic acid receptors were utilized to cotransfect, and the effect of retinol derivatives on the transcription activity of c-Jun was analyzed.
With the assumption of the prepared retinol-(N-formyl-aspartam) derivatives which inhibit the activity of AP-1 causing skin wrinkle, would have the utility for cosmetics, the related investigations were proceeded. Similar to the experiment of retinoic acid receptor, AP-1 (c-jun) expression vector and Coll-CAT plasmid for the activity measurement were introduced into the skin cancer (HaCAT) cell line with liposome. After treating the cells with retinol-(N-formyl-aspartam) derivatives, the cell extracts were isolated. The expression level of CAT were measured with CAT ELISA to determine the effect of retinol-(N-formyl-aspartam) on the activity of the AP-1.

[2] = test system: activation protein-1 (AP-1); assay: Activity inhibition test of AP-1, Coll-CAT reporter in Cos-1 cells; settings: expression level in the presence of c-Jun expression set as 100%
Description: CAT reporter (Coll-CAT) containing collagen promoter including AP-1 transcription factor binding site (TRE) was utilized to transfect Cos-1 cell line. Activity inhibition tests of activation protein-1 (AP-1) similar to the experimental example 6 were proceeded.

- activation of retinoid X receptor β (retinoid X receptor β): no activation
- activation of retinoid X receptor α (retinoid X receptor α): no activation
- activation of retinoid X receptor γ (retinoid X receptor γ): no activation
SMILES: COC(=O)C(Cc1ccccc1)NC(=O)[C@H](CC(=O)OC/C=C(C)/C=C/C=C(C)/C=C/C1=C(C)CCCC1(C)C)NC=O (stereo partly drawn) [retinol-(N-formyl-aspartam), (2E,4E,6E,8E)-3,7-dimethyl-9-(2,6,6-trimethyl-1-cyclohexenyl)-2,4,6,8-nonatetraenyl(3S)-4-[(1-benzyl-2-methoxy-2-oxoethyl)amino]-3-formylamino-4-oxobutanoate]
- lowered the expression of collagenase (Coll-CAT) [1]: ~44%
- lowered the expression of collagenase (Coll-CAT) [2]: approximately 42%
